PMC6458995, “MAP4K4 Inhibition Promotes Survival of Human Stem Cell-Derived Cardiomyocytes and Reduces Infarct Size In Vivo” (Cell Stem Cell, 2019)
pIC50: −log10 of the molar value.

Key:
Experiment in all cases: HTRF Transcreener ADP kinase assay
Format in all cases: biochemical
KHS/MAP4K5 = KHS/MAP4K5 (Homo sapiens, UniProt Q9Y4K4); details: for pIC50: HTRF Transcreener ADP assay
Description: (§1) MAP4K4 kinase activity was monitored using the CisBio HTRF Transcreener ADP assay, a competitive immunoassay with a reproducible Z’ > 0.6. In the detection step, endogenous ADP and d2-labeled ADP compete for binding an anti-ADP monoclonal antibody labeled with Eu^3+ cryptate. A ratiometric fluorescent readout is used at 665 and 620 nm. […] Assays were run in Greiner low volume plates with a final reaction volume of 10 μl. Percent inhibition was calculated from 100% activity of MAP4K4 (DMSO only) and 0% activity (no enzyme added). Data were either reported as % inhibition at a single dose or as pIC50 values derived from dose response curves (pIC50 = -log[IC50]).
(§2) Kinase selectivity profiling was performed by the International Centre for Kinase Profiling, MRC Protein Phosphorylation and Ubiquitylation Unit (141 kinases; Premier Screen, http://www.kinase-screen.mrc.ac.uk), using a [γ-^33P]ATP filter binding assay ([Bain et al., 2007]). Compounds were screened at 1 μM. For key hits, pIC50 values were then determined by HTRF as above. More complete kinome profiling was performed by Reaction Biology (376 kinases). Stability in mouse and human liver microsomes was determined by Cyprotex.

Aurora B = molecular target: T1, Aurora B (Homo sapiens, UniProt Q96GD4)
T1 construct: lines 1-140) and Reaction Biology
Description: as §1, §2

GCK/MAP4K2 = molecular target: T2, GCK/MAP4K2 (Homo sapiens, UniProt Q12851); details: for pIC50: HTRF Transcreener ADP assay
T2 sequence (Q12851 1-820): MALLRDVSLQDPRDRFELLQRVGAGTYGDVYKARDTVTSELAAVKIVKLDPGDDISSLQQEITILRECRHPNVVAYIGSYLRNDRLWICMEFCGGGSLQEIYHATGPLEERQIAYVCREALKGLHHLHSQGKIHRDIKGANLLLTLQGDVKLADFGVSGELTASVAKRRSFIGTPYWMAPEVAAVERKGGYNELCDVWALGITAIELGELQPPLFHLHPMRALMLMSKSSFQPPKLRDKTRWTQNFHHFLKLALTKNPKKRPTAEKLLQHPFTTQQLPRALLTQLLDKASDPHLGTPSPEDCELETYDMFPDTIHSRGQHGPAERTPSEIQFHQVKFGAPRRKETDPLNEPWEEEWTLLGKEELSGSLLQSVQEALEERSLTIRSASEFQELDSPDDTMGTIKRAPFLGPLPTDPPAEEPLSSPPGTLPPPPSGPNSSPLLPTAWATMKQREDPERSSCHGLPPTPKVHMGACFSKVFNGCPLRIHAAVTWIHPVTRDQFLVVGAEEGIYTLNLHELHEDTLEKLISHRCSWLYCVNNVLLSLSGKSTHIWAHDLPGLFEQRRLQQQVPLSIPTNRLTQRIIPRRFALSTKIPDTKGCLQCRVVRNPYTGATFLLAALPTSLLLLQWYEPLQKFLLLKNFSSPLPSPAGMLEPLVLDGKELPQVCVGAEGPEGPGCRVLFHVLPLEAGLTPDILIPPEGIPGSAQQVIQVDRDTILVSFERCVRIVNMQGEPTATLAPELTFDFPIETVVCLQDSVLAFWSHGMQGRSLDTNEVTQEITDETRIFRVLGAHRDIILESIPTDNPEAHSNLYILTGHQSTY
Description: as §1, §2

GLK/MAP4K3 = molecular target: T3, GLK/MAP4K3 (Homo sapiens, UniProt Q8IVH8); details: for pIC50: HTRF Transcreener ADP assay
T3 sequence (Q8IVH8 1-894): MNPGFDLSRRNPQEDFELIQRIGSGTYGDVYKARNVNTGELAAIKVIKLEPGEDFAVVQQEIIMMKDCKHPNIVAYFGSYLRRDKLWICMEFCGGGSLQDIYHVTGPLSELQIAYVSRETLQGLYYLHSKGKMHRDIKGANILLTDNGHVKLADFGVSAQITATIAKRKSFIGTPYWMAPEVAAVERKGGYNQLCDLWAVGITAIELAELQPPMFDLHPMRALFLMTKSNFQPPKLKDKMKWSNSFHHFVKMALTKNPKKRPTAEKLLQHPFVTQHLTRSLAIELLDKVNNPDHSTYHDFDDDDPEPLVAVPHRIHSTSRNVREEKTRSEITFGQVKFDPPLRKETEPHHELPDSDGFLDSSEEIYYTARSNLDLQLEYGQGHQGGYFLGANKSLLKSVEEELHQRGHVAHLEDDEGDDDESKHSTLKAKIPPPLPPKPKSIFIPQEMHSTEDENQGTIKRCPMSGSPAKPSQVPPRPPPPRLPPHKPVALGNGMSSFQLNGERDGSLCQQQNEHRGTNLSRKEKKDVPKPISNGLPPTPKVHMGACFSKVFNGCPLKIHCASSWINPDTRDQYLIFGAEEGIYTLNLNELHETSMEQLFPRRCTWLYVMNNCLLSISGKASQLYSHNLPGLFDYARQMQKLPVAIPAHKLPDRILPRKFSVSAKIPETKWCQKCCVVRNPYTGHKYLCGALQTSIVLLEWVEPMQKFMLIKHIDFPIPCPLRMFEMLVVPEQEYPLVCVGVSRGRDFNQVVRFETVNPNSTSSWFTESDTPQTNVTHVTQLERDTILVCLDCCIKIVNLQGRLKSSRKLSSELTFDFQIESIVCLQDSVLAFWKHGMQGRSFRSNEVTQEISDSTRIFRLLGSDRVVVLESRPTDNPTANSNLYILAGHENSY
Description: as §1, §2

MLK1/MAP3K9 = MLK1/MAP3K9 (Homo sapiens, UniProt P80192); details: for pIC50: HTRF Transcreener ADP assay
Description: as §1, §2

MLK3/MAP3K11 = MLK3/MAP3K11 (Homo sapiens, UniProt Q16584); details: for pIC50: HTRF Transcreener ADP assay
Description: as §1, §2

MLK1/MAP3K9, sequence (P80192 whole entry): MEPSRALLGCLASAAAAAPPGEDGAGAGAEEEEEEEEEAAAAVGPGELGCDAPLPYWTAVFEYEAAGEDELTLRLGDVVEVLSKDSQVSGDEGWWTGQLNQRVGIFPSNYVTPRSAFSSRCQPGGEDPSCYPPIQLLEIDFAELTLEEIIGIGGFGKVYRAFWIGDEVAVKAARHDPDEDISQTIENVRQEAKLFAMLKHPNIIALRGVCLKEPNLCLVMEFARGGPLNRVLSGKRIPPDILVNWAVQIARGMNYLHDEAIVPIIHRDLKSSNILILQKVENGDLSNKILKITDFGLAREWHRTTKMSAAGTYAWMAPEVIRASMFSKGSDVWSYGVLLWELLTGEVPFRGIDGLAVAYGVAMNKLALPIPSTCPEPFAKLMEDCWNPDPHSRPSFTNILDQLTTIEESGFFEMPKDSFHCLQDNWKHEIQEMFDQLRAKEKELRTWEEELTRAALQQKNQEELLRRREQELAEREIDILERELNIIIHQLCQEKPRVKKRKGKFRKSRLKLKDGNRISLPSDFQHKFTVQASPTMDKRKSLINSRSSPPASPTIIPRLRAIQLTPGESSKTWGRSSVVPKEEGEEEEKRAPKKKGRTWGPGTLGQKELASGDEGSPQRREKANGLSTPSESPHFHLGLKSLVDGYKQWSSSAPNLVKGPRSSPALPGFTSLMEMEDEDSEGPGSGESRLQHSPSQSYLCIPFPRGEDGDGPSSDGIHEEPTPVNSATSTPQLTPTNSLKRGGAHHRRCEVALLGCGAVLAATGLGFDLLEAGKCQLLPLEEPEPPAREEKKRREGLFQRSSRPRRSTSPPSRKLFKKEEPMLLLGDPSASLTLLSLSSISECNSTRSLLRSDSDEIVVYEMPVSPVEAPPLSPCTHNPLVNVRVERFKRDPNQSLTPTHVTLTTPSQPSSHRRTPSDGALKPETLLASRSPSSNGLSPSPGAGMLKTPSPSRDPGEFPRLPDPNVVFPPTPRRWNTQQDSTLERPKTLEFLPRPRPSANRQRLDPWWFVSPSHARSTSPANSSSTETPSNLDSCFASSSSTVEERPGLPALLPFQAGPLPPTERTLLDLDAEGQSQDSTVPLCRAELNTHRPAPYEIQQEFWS
KHS/MAP4K5, sequence (Q9Y4K4 whole entry): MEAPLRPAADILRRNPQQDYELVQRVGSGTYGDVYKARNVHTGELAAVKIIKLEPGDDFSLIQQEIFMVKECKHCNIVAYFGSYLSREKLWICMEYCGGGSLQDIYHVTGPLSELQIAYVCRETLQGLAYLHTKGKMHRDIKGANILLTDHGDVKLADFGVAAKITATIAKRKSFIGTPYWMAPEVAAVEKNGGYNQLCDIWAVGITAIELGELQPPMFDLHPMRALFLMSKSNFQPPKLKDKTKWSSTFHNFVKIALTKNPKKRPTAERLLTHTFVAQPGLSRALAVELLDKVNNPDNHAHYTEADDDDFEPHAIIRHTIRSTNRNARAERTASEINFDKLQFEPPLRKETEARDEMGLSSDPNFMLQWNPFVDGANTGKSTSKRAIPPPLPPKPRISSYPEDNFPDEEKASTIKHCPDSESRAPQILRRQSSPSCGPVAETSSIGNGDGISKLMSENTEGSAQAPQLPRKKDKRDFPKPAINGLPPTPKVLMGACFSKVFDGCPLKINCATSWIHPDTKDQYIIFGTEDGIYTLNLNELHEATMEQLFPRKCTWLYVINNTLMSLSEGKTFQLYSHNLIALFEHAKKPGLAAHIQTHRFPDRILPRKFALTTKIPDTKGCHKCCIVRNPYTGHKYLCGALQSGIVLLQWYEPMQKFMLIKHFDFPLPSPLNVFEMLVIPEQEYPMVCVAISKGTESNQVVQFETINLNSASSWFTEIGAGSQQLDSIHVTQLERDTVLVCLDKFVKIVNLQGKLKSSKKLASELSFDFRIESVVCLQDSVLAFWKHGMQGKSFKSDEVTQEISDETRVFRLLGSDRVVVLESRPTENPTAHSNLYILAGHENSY
MLK3/MAP3K11, sequence (Q16584 whole entry): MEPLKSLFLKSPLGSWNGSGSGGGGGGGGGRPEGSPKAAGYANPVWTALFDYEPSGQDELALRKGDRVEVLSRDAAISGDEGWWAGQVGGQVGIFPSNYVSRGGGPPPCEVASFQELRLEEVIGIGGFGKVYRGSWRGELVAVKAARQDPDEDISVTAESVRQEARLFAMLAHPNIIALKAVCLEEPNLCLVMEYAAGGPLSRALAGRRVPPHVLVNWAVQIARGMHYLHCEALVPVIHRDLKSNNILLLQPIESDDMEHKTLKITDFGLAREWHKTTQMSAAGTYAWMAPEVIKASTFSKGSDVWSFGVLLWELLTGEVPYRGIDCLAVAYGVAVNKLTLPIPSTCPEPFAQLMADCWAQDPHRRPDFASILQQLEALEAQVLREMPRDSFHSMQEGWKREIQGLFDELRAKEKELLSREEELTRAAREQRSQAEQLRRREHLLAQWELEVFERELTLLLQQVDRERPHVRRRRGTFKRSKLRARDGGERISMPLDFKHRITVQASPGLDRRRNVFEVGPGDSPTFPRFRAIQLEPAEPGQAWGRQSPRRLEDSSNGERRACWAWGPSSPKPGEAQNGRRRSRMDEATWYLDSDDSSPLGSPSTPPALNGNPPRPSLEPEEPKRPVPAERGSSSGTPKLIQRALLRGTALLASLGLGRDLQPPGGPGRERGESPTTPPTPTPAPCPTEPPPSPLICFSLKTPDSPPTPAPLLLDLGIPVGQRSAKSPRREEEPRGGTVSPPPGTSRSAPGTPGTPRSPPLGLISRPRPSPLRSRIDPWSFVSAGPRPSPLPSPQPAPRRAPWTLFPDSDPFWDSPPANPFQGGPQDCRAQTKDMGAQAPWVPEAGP
T1 sequence (Q96GD4 whole entry): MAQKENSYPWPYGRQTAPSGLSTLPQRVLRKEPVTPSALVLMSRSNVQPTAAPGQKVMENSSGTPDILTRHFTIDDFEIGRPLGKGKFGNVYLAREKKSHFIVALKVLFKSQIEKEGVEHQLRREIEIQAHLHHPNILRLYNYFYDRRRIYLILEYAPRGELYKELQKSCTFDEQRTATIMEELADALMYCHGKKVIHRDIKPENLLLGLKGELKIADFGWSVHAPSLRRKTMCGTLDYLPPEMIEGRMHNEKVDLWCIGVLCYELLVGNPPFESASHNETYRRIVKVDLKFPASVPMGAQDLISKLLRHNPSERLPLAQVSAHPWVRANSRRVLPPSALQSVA

Row | SMILES | pIC50 (KHS/MAP4K5; KHS/MAP4K5) | Fold Selectivity (KHS/MAP4K5; KHS/MAP4K5 versus MAP4K4) | DMX-5804 vs F1386-0303 (KHS/MAP4K5; ratio of fold selectivity, KHS/MAP4K5) | DMX-5804 vs F1386-0303 (Aurora B; ratio of fold selectivity) | pIC50 (GCK/MAP4K2; GCK/MAP4K2) | Fold Selectivity (GCK/MAP4K2; GCK/MAP4K2 versus MAP4K4) | DMX-5804 vs F1386-0303 (GCK/MAP4K2; ratio of fold selectivity, GCK/MAP4K2) | pIC50 (GLK/MAP4K3; GLK/MAP4K3) | Fold Selectivity (GLK/MAP4K3; GLK/MAP4K3 versus MAP4K4) | DMX-5804 vs F1386-0303 (GLK/MAP4K3; ratio of fold selectivity, GLK/MAP4K3) | pIC50 (MLK1/MAP3K9; MLK1/MAP3K9) | Fold Selectivity (MLK1/MAP3K9; MLK1/MAP3K9 versus MAP4K4) | DMX-5804 vs F1386-0303 (MLK1/MAP3K9; ratio of fold selectivity, MLK1/MAP3K9) | pIC50 (MLK3/MAP3K11; MLK3/MAP3K11) | Fold Selectivity (MLK3/MAP3K11; MLK3/MAP3K11 versus MAP4K4) | DMX-5804 vs F1386-0303 (MLK3/MAP3K11; ratio of fold selectivity, MLK3/MAP3K11) | pIC50 (Aurora B; HTRF Transcreener ADP assay)
1 | COCCOc1ccc(-c2cn(-c3ccccc3)c3nc[nH]c(=O)c23)cc1 [DMX-5804, 5-[4-(2-methoxy-ethoxy)-phenyl]-7-phenyl-3,7-dihydro-pyrrolo[2,3-d]pyrimidin-4-one] | 6.36 | 153 | 0.88 | 1.47 | 6.50 | 112 | 3.20 | 4.95 | 3981 | 4.57 | 7.19 | 23 | 1.53 | 6.99 | 36 | 1.57 | –
2 | Oc1ncnc2c1c(-c1ccccc1)cn2-c1ccccc1 [F1386-0303, 5,7-diphenyl-7H-pyrrolo[2,3-d]pyrimidin-4-ol] | 5.22 | – | – | – | 5.91 | – | – | 4.52 | – | – | 6.28 | – | – | 6.09 | – | – | 4.88
